Experiments:
[1] = Scanning electron microscopy of dicumarol formulations; type: physicochemical
Protocol: Scanning Electron Microscopy: All samples were sputter-coated with an Au—Pd target for 3.5 minutes and spread out on a carbon-backed adhesive disc on top of the SEM stub. The Hitachi 2700 was used to visualize the samples at an accelerating voltage of 8 kV.

[2] = Dicumarol loading by NaOH extraction; type: physicochemical; conditions: dicumarol content by NaOH extraction
Protocol: 100 mg p(FA:SA) 17:83 was dissolved in this solution by sonicating for an additional 30 s. The resultant solution was dispersed into 1.0 L petroleum ether and the precipitate was collected using a 100 nm filter composed of mixed-cellulose esters. The microsphere formulation was then frozen and lyophilized for 24 hours. The dicumarol loading was determined in this formulation by a simple extraction protocol. Microspheres were incubated overnight in 2.5 N NaOH at 37° C. Upon dissolution, an aliquot of approximately 15 μg based on theoretical loading was added to 2.5 N NaOH to make a total volume of 800 μL. This mixture was agitated for 2 minutes and centrifuged for 2 minutes at 11,269 g.
The dicumarol loading was determined in all formulations by a simple extraction protocol. Microspheres were incubated overnight in 2.5 N NaOH at 37° C. Upon dissolution, an aliquot of approximately 15 μg based on theoretical loading was added to 2.5 N NaOH to make a total volume of 800 μL. This mixture was agitated for 2 minutes and centrifuged for 2 minutes at 11,269 g.

[3] = Coulter particle size analysis (laser-light diffractometry, volume statistics); type: physicochemical
Protocol: A 250 μg/mL suspension of microspheres in 1% pluronic F127 [poly(ethylene oxide)-b-poly(propylene oxide)-b-poly(ethylene oxide)]/1% hydroxypropylmethylcellulose (HPMC) was introduced into the small volume fluid module. Only the Coulter output based on volume measurements was used for analysis.

[4] = in vivo; conditions: rat, 25 mg/kg
From the text: Rats were anesthetized using isoflurane gas.
Non-compartmental pharmacokinetics were assumed.

What does the source list for `O=c1oc2ccccc2c(O)c1Cc1c(O)c2ccccc2oc1=O` [Stock, Dicumarol]?
particle size seen in SEM micrographs ([1]; FIG. 1): 10-20 microns; particle size seen in SEM micrographs ([1]; FIG. 7A): approximately 25 μm; Loading (drug loading) [2]: 100%; mean particle diameter ([3]; based on volume statistics): 18.5 μm; Coulter Particle Analysis 25% < ([3]; volume calculations, 25% of population less than this size): 12.98 μm; Coulter Particle Analysis 50% < ([3]; volume calculations, 50% of population less than this size): 18.95 μm; Coulter Particle Analysis 75% < ([3]; volume calculations, 75% of population less than this size): 24.82 μm; bioavailability ([4]; male, Sprague-Dawley): 90.1 ± 7.3%; Cmax ([4]; male, Sprague-Dawley, po): 73 ± 6 µg/mL; Tmax ([4]; male, Sprague-Dawley, po): 14 ± 2 h; plasma concentration reached (peak of plasma curve) ([4]; male, Sprague-Dawley, po): 64 µg/mL; time after which the peak of the plasma curve was reached ([4]; male, Sprague-Dawley, po): 3 h; AUC ([4]; po): 2666 ± 206 µg·h/mL

— patent US20050100595A1, “Methods for micronization of hydrophobic drugs” (Brown University Research Foundation, priority 2001, published 2005)
